{"source": "patent US20100068200A1", "about": "“Methods and Compositions for Inhibiting Atherosclerosis and Vascular Inflammation” (THE UNIVERSITY OF CONNECTICUT, priority 2008, published 2010)", "key": {"S1p2r−/− macrophage": {"tested_on": "S1p2r−/− macrophage", "experiment": "reversal of caspase-11 null phenotype of S1p2r−/− macrophage", "assay_type": "cell-based, mouse", "details": "MG132 1-20 μM, chloroquine 10-100 μM, data not shown"}, "caspase-11": {"tested_on": "caspase-11", "experiment": "caspase-11 protein expression in elicited peritoneal macrophages (western blot)", "assay_type": "cell-based", "details": "mouse elicited peritoneal macrophages; oxLDL 50 μg/ml or TNFα 50 ng/ml, 8 hrs", "experimental": "Isolation of Thioglycolate-Elicited Peritoneal Cells. Mice were injected i.p. with 2 ml of 3% thioglycolate. Four days later, the peritoneal fluid was collected, and cells monolayer was prepared by addition of 1 ml/well (2×10^6 macrophages) into 35 mm culture dishes. Macrophage adhesion was allowed to proceed for 4 h at 37° C. in a 5% CO2 atmosphere.\nImmunoprecipitation experiments. Cell or spleen extracts were prepared with RIPA buffer (25 mM Tris-HCl pH 7.6, 150 mM NaCl, 1% NP-40, 1% sodium deoxycholate, 0.1% SDS). Caspase-1 was immunoprecipitated with polyclonal rabbit anti-caspase-1 antibody (Santa Cruz) crosslinked to protein A beads and Caspase-11 was immunoprecipitated with monoclonal rat anti-caspase-11 antibody, crosslinked to protein G beads. For western blot analysis, BMDM were treated with LPS (1 μg/ml, E. coli serotype 026:B6; Sigma). Aortas or cells were solubilized in RIPA buffer or 2×SDS-sample buffer (20 mM DTT, 6% SDS, 0.25 M Tris pH 6.8, 10% Glycerol, bromophenyl blue, protease inhibitors, 1 mM sodium orthovanadate and 1 mM NaF), sonicated, boiled and separated by SDS-PAGE gel electrophoresis. […] Cells were treated as indicated with 1 μg/ml LPS (Sigma) and 50 ng/ml TNFα (Sigma) Immunoreactive bands density was quantified with Image Pro Plus Analysis Software (Media Cybernetics)."}}, "note": "Where a SMILES comes first, the peptide text is derived from it. The star is where a group is joined. Cbz = O=C(OCc1ccccc1)*", "data": [{"compound": "CC(C)C[C@@H](C=O)NC(=O)[C@H](CC(C)C)NC(=O)[C@H](CC(C)C)NC(=O)OCc1ccccc1", "note": "[MG132] (Cbz-Leu-Leu-Leu-aldehyde)", "values": [{"measurement": "reversal of caspase-11 null phenotype", "setting": "S1p2r−/− macrophage", "result": "could not reverse"}]}, {"compound": "TNFα", "values": [{"measurement": "caspase-11 protein expression after stimulus", "setting": "caspase-11", "result": "upregulates"}]}]}
